Tested on: Candida albicans ATCC10231
Test: Systemic fungal infection in mice, intravenous administration, survival
Assay type: in vivo
Conditions: ICR mice, tail vein, 5 mg/kg (calculated as voriconazole) once daily for 5 days
How it was run: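 Male ICR mice (18-22 g) infected via tail vein with C. albicans ATCC10231 at 5*10^6 cells/ml, 0.1 ml/10 g; groups of 10. From 2 h post-infection, 5 mg/kg (as voriconazole) given i.v. once daily for 5 days, saline vehicle (voriconazole in sulfobutyl ether-β-cyclodextrin); survival time recorded over 7 days.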

CC(OC(=O)SCCO)[n+]1cnn(C[C@](O)(c2ccc(F)cc2F)[C@@H](C)c2ncncc2F)c1 (stereo partly drawn) [Compound 16037]
survival rate of mice, day 1 (day 1): 100% | survival rate of mice, day 2 (day 2): 100% | survival rate of mice, day 3 (day 3): 90% | survival rate of mice, day 4 (day 4): 90% | survival rate of mice, day 5 (day 5): 90% | survival rate of mice, day 6 (day 6): 80%

— US11040958B2, “Triazole antimicrobial derivative, pharmaceutical composition and use thereof” (priority 2017, dated 2021)
